Test results: PubChem BioAssay AID256 (DTP/NCI, 2004)
Where “and” joins values, the source holds several entries; their conditions need not be identical. Equal values may be shown once. Toxic doses and inconclusive results are not listed.

Test system: CD2F1 mice, L1210 leukemia ip, survival T/C
Assay: NCI In Vivo Anticancer Drug Screen. Data for tumor model L1210 Leukemia (intraperitoneal) in CD2F1 (CDF1) mice
Details: higher = longer survival
Summary of the method: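 Compound-dosed mice with transplantable tumor versus matched vehicle controls; endpoint ratio T/C reported.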

[1] = endpoint: median survival time, dose: 25.0 mg/kg/injection, schedule: Q01DX005 (ip), vehicle: saline
[2] = endpoint: median survival time, dose: 50.0 mg/kg/injection, schedule: Q01DX005 (ip), vehicle: saline
[3] = endpoint: mean survival time, dose: 25.0 mg/kg/injection, schedule: Q01DX009 (ip), vehicle: saline with Tween-80
[4] = endpoint: mean survival time, dose: 50.0 mg/kg/injection, schedule: Q01DX009 (ip), vehicle: saline with Tween-80
[5] = endpoint: mean survival time, dose: 100.0 mg/kg/injection, schedule: Q01DX009 (ip), vehicle: saline with Tween-80
[6] = endpoint: mean survival time, dose: 100.0 mg/kg/injection, schedule: Q04DX003 (ip), vehicle: saline with Tween-80
[7] = endpoint: mean survival time, dose: 100.0 mg/kg/injection, schedule: Q01DX001 (ip), vehicle: saline with Tween-80
[8] = endpoint: mean survival time, dose: 200.0 mg/kg/injection, schedule: Q01DX001 (ip), vehicle: saline with Tween-80
[9] = endpoint: mean survival time, dose: 400.0 mg/kg/injection, schedule: Q01DX001 (ip), vehicle: saline with Tween-80

COc1ccc(-c2c3nc(c(-c4ccc(OC)cc4)c4ccc([nH]4)c(-c4ccc(OC)cc4)c4nc(c(-c5ccc(OC)cc5)c5ccc2[nH]5)C=C4)C=C3)cc1
T/C (endpoint: mean survival time, dose: 100.0 mg/kg/injection, schedule: Q04DX003 (ip), vehicle: Klucel (hydroxypropylcellulose) (HPC)): 93 % of control
T/C (endpoint: mean survival time, dose: 200.0 mg/kg/injection, schedule: Q04DX003 (ip), vehicle: Klucel (hydroxypropylcellulose) (HPC)): 101 % of control
T/C (endpoint: mean survival time, dose: 400.0 mg/kg/injection, schedule: Q04DX003 (ip), vehicle: Klucel (hydroxypropylcellulose) (HPC)): 89 % of control

CC1CN=C(c2ccc(NC(=O)c3ccc(C(=O)Nc4ccc(C5=NCC(C)N5)cc4)cc3)cc2)N1 (stereo unspecified)
T/C (endpoint: mean survival time, dose: 12.5 mg/kg/injection, schedule: Q01DX009 (ip), vehicle: Klucel (hydroxypropylcellulose) (HPC)): 212 % of control
T/C (endpoint: mean survival time, dose: 25.0 mg/kg/injection, schedule: Q01DX009 (ip), vehicle: Klucel (hydroxypropylcellulose) (HPC)): 269 % of control
T/C (endpoint: mean survival time, dose: 50.0 mg/kg/injection, schedule: Q01DX009 (ip), vehicle: Klucel (hydroxypropylcellulose) (HPC)): 290 % of control
T/C (endpoint: mean survival time, dose: 100.0 mg/kg/injection, schedule: Q01DX009 (ip), vehicle: Klucel (hydroxypropylcellulose) (HPC)): 305 % of control
T/C (endpoint: mean survival time, dose: 200.0 mg/kg/injection, schedule: Q01DX009 (ip), vehicle: Klucel (hydroxypropylcellulose) (HPC)): 333 % of control
T/C (endpoint: mean survival time, dose: 400.0 mg/kg/injection, schedule: Q01DX009 (ip), vehicle: Klucel (hydroxypropylcellulose) (HPC)): 288 % of control

O=C(O)C1OC(Sc2ncnc3nc[nH]c23)C(O)C(O)C1O (stereo unspecified)
T/C [1]: 98 % of control
T/C [2]: 108 % of control
T/C (endpoint: median survival time, dose: 100.0 mg/kg/injection, schedule: Q01DX005 (ip), vehicle: saline): 109 % of control
T/C (endpoint: median survival time, dose: 200.0 mg/kg/injection, schedule: Q01DX005 (ip), vehicle: saline): 120 % of control and 112 % of control
T/C (endpoint: median survival time, dose: 400.0 mg/kg/injection, schedule: Q01DX005 (ip), vehicle: saline): 115 % of control

N=P(N[P+](N)(c1ccccc1)c1ccccc1)(c1ccccc1)c1ccccc1
T/C (endpoint: mean survival time, dose: 1.56 mg/kg/injection, schedule: Q01DX009 (ip), vehicle: Klucel (hydroxypropylcellulose) (HPC)): 103 % of control
T/C (endpoint: mean survival time, dose: 3.12 mg/kg/injection, schedule: Q01DX009 (ip), vehicle: Klucel (hydroxypropylcellulose) (HPC)): 103 % of control
T/C (endpoint: mean survival time, dose: 6.25 mg/kg/injection, schedule: Q01DX009 (ip), vehicle: Klucel (hydroxypropylcellulose) (HPC)): 91 % of control and 103 % of control

CC1(C)N=C(N)N=C(N)N1c1ccc(OCc2ccc(C(=O)Nc3cccc(S(=O)(=O)F)c3)cc2)c(Cl)c1
T/C (endpoint: mean survival time, dose: 200.0 mg/kg/injection, schedule: Q04DX003 (ip), vehicle: saline): 104 % of control

CC(C(=O)N1c2ccccc2Sc2ccccc21)[N+](C)(C)C (stereo unspecified)
T/C (endpoint: mean survival time, dose: 12.5 mg/kg/injection, schedule: Q04DX003 (ip), vehicle: saline): 97 % of control
T/C (endpoint: mean survival time, dose: 25.0 mg/kg/injection, schedule: Q04DX003 (ip), vehicle: saline): 101 % of control
T/C (endpoint: mean survival time, dose: 50.0 mg/kg/injection, schedule: Q04DX003 (ip), vehicle: saline): 101 % of control

Cc1ccc(C)c(C(=O)CCCCl)c1
T/C [3]: 105 % of control
T/C (endpoint: mean survival time, dose: 25.0 mg/kg/injection, schedule: Q04DX003 (ip), vehicle: saline with Tween-80): 93 % of control
T/C [4]: 97 % of control
T/C (endpoint: mean survival time, dose: 50.0 mg/kg/injection, schedule: Q04DX003 (ip), vehicle: saline with Tween-80): 96 % of control
T/C [5]: 100 % of control
T/C [6]: 96 % of control

CC(CC(=O)O)(C(=O)O)S(=O)O (stereo unspecified)
T/C (endpoint: mean survival time, dose: 100.0 mg/kg/injection, schedule: Q04DX002 (ip), vehicle: other): 97 % of control
T/C (endpoint: mean survival time, dose: 200.0 mg/kg/injection, schedule: Q04DX002 (ip), vehicle: other): 100 % of control
T/C (endpoint: mean survival time, dose: 400.0 mg/kg/injection, schedule: Q04DX002 (ip), vehicle: other): 100 % of control

Cc1ccc(C(=O)C=C(C(F)(F)F)C(F)(F)F)cc1
T/C (endpoint: mean survival time, dose: 6.25 mg/kg/injection, schedule: Q01DX009 (ip), vehicle: saline with Tween-80): 102 % of control
T/C (endpoint: mean survival time, dose: 12.5 mg/kg/injection, schedule: Q01DX009 (ip), vehicle: saline with Tween-80): 98 % of control
T/C [3]: 98 % of control

COc1ccc(CCN2CC34C=CC(O3)C(C(=O)O)C4C2=O)cc1OCc1ccccc1 (stereo unspecified)
T/C (endpoint: mean survival time, dose: 100.0 mg/kg/injection, schedule: Q04DX002 (ip), vehicle: saline with Tween-80): 95 % of control
T/C (endpoint: mean survival time, dose: 200.0 mg/kg/injection, schedule: Q04DX002 (ip), vehicle: saline with Tween-80): 95 % of control
T/C (endpoint: mean survival time, dose: 400.0 mg/kg/injection, schedule: Q04DX002 (ip), vehicle: saline with Tween-80): 95 % of control

O=C(O)c1nccc2c([N+](=O)[O-])cccc12
T/C (endpoint: mean survival time, dose: 100.0 mg/kg/injection, schedule: Q01DX009 (ip), vehicle: acetone): 95 % of control
T/C (endpoint: mean survival time, dose: 200.0 mg/kg/injection, schedule: Q01DX009 (ip), vehicle: acetone): 95 % of control
T/C (endpoint: mean survival time, dose: 400.0 mg/kg/injection, schedule: Q01DX009 (ip), vehicle: acetone): 98 % of control

Fc1ccc2nc(C(F)(F)F)cc(Br)c2c1
T/C [6]: 103 % of control
T/C (endpoint: mean survival time, dose: 200.0 mg/kg/injection, schedule: Q04DX003 (ip), vehicle: saline with Tween-80): 98 % of control
T/C (endpoint: mean survival time, dose: 400.0 mg/kg/injection, schedule: Q04DX003 (ip), vehicle: saline with Tween-80): 101 % of control

COCC/C=C/CCl
T/C [3]: 100 % of control
T/C [4]: 92 % of control
T/C [5]: 100 % of control

COc1ccccc1N=Nc1c(O)n(-c2ccccc2OC)c(=S)n(-c2ccc(I)cc2)c1=O
T/C [7]: 96 % of control
T/C [8]: 93 % of control
T/C [9]: 95 % of control

CC#CN(CC)CC
T/C (endpoint: mean survival time, dose: 75.0 mg/kg/injection, schedule: Q01DX001 (ip), vehicle: saline): 105 % of control
T/C (endpoint: mean survival time, dose: 150.0 mg/kg/injection, schedule: Q01DX001 (ip), vehicle: saline): 106 % of control

Nc1ccc(C(=O)Nc2ccc(OCc3nc(N)nc(N)c3-c3ccc(Cl)cc3)cc2)cc1
T/C [7]: 97 % of control
T/C [8]: 93 % of control
T/C [9]: 95 % of control

CC/C=C/CC(=O)NCc1ccc(O)c(OC)c1
T/C [7]: 101 % of control
T/C [8]: 103 % of control

O=C1NC(CN2CCC(O)CC2)C(=O)NC1CN1CCC(O)CC1 (stereo unspecified)
T/C (endpoint: mean survival time, dose: 3.13 mg/kg/injection, schedule: Q01DX009 (ip), vehicle: water): 97 % of control
T/C (endpoint: mean survival time, dose: 6.25 mg/kg/injection, schedule: Q01DX009 (ip), vehicle: water): 95 % of control
T/C (endpoint: mean survival time, dose: 12.5 mg/kg/injection, schedule: Q01DX009 (ip), vehicle: water): 97 % of control
T/C (endpoint: mean survival time, dose: 25.0 mg/kg/injection, schedule: Q01DX009 (ip), vehicle: water): 100 % of control
T/C (endpoint: mean survival time, dose: 50.0 mg/kg/injection, schedule: Q01DX009 (ip), vehicle: water): 100 % of control
T/C (endpoint: mean survival time, dose: 100.0 mg/kg/injection, schedule: Q01DX009 (ip), vehicle: water): 108 % of control

CCNC(=S)N1c2c(nc(N)[nH]c2=O)NCC1CNc1ccc(C(=O)NC(CCC(=O)O)C(=O)O)cc1 (stereo unspecified)
T/C (endpoint: mean survival time, dose: 100.0 mg/kg/injection, schedule: Q01DX001 (ip), vehicle: alkali diluted with saline): 98 % of control
T/C (endpoint: mean survival time, dose: 200.0 mg/kg/injection, schedule: Q01DX001 (ip), vehicle: alkali diluted with saline): 101 % of control
T/C (endpoint: mean survival time, dose: 400.0 mg/kg/injection, schedule: Q01DX001 (ip), vehicle: alkali diluted with saline): 103 % of control

Cc1ccc(C(=O)Nc2ccc(S(=O)(=O)O)c3cc(S(=O)(=O)O)cc(S(=O)(=O)O)c23)cc1NC(=O)c1cccc(NC(=O)Nc2cccc(C(=O)Nc3cc(C(=O)Nc4ccc(S(=O)(=O)O)c5cc(S(=O)(=O)O)cc(S(=O)(=O)O)c45)ccc3C)c2)c1
T/C (endpoint: median survival time, dose: 12.5 mg/kg/injection, schedule: Q01DX005 (ip), vehicle: saline): 101 % of control
T/C [1]: 101 % of control
T/C [2]: 116 % of control

O=C(/C(=N/N=C\c1ccc([N+](=O)[O-])cc1)c1ccccc1)c1ccccc1
T/C [5]: 101 % of control
T/C (endpoint: mean survival time, dose: 100.0 mg/kg/injection, schedule: Q01DX009 (ip), vehicle: saline): 109 % of control
T/C (endpoint: mean survival time, dose: 200.0 mg/kg/injection, schedule: Q01DX009 (ip), vehicle: saline with Tween-80): 95 % of control
T/C (endpoint: mean survival time, dose: 200.0 mg/kg/injection, schedule: Q01DX009 (ip), vehicle: saline): 109 % of control
T/C (endpoint: mean survival time, dose: 400.0 mg/kg/injection, schedule: Q01DX009 (ip), vehicle: saline with Tween-80): 95 % of control
T/C (endpoint: mean survival time, dose: 400.0 mg/kg/injection, schedule: Q01DX009 (ip), vehicle: saline): 104 % of control

COC1=CC(=O)C=C(OC)C1=O
T/C (endpoint: mean survival time, dose: 4.0 mg/kg/injection, schedule: Q01DX009 (ip), vehicle: saline): 96 % of control
T/C (endpoint: mean survival time, dose: 8.0 mg/kg/injection, schedule: Q01DX009 (ip), vehicle: saline): 98 % of control
T/C (endpoint: mean survival time, dose: 16.0 mg/kg/injection, schedule: Q01DX009 (ip), vehicle: saline): 96 % of control
